Assay results from patent US10106539B2, “Spiro-indolines for the treatment and prophylaxis of respiratory syncytial virus infection (RSV)” (REVIRAL LIMITED, priority 2014, dated 2018).

Tests used:
RSV A2 (PRNT1) = assay: RSV plaque reduction assay, A2 (PRNT1), Vero cells; format: cell-based, respiratory syncytial virus; details: human respiratory syncytial virus, Vero; n = 4
Protocol: Plaque Reduction Assay: […] After an overnight incubation at 37° C. in a humidified 5% CO2 atmosphere, the monolayer of cells should be approximately 90% confluent. Antiviral compounds were titrated in pre-warmed Serum Free (SF) Optimem in a U-bottom 96 well plate. […] Media was then removed from cells and replaced with PBS (100 μl/well). RSV stock was thawed and diluted in SF Optimem media to 4000 PFU/mLl. An equal volume of virus was added to compounds on the titration plate. PBS was removed from cells which were then inoculated with the virus/compound solution (50 μL/well). Cells were incubated for 2 h in a 37° C.+5% CO2 humidified incubator to allow infection. […] Immunostaining Procedure: Media was removed from cells and the monolayer washed with PBS. Cells were fixed with ice cold 80% Acetone in PBS (100 μl/well) for 20 mins at −20° C. […] Blocking solution was removed and plates washed once with PBS-T. Primary antibody in blocking solution was added to plates (50 μl/well) and incubated for 1 h at 37° C. Plates were then washed 3 times with PBS-T. Secondary antibody in blocking solution was added to plates (50 μL/well) and incubated for 1 h at 37° C. in the dark. […] Plates were scanned on the Odyssey Imager (Li-Cor Biosciences) at a resolution of […], medium quality and level 5 intensity in the […]. Data Analysis: Images obtained were saved and plaque numbers counted with the aid of computer imaging software. EC50 values for compounds were derived from dose response curves [three variable log (inhibitor) vs response] obtained using Graphpad Prism software.

RSV-BA (Brasil) = assay: RSV plaque reduction assay, RSV-BA (Brasil), Vero cells; format: cell-based; details: human respiratory syncytial virus, n = 1
Protocol: Plaque Reduction Assay: […] After an overnight incubation at 37° C. in a humidified 5% CO2 atmosphere, the monolayer of cells should be approximately 90% confluent. Antiviral compounds were titrated in pre-warmed Serum Free (SF) Optimem in a U-bottom 96 well plate. […] Media was then removed from cells and replaced with PBS (100 μl/well). RSV stock was thawed and diluted in SF Optimem media to 4000 PFU/mLl. An equal volume of virus was added to compounds on the titration plate. PBS was removed from cells which were then inoculated with the virus/compound solution (50 μL/well). Cells were incubated for 2 h in a 37° C.+5% CO2 humidified incubator to allow infection. […] Immunostaining Procedure: Media was removed from cells and the monolayer washed with PBS. Cells were fixed with ice cold 80% Acetone in PBS (100 μl/well) for 20 mins at −20° C. […] Blocking solution was removed and plates washed once with PBS-T. Primary antibody in blocking solution was added to plates (50 μl/well) and incubated for 1 h at 37° C. Plates were then washed 3 times with PBS-T. Secondary antibody in blocking solution was added to plates (50 μL/well) and incubated for 1 h at 37° C. in the dark. […] Data Analysis: Images obtained were saved and plaque numbers counted with the aid of computer imaging software. […]

[1] = Plasma protein binding (equilibrium dialysis), human; format: in vitro ADME; details: plasma (100%), pH 7.4, read-out: PPB fraction unbound, human
Protocol: Protein Binding Determination: Experimental Procedure
Solutions of test compound (5 μM, 0.5% final DMSO concentration) are prepared in buffer (pH 7.4) and 100% species-specific plasma. The experiment is performed using equilibrium dialysis with the two compartments separated by a semi-permeable membrane. The buffer solution is added to one side of the membrane and the plasma solution to the other side. After equilibration, samples are taken from both sides of the membrane. Standards are prepared in plasma and buffer and are incubated at 37° C.
Test compound incubations are performed in duplicate. A control compound is included in each experiment.
The solutions for each batch of compounds are combined into two groups (protein-free and protein-containing), then cassette analysed by LC-MS/MS using two sets of calibration standards for protein-free (7 points) and protein-containing solutions (6 points).

RSV = RSV plaque reduction assay (Comparative Example 1, strain not stated); format: cell-based; details: human respiratory syncytial virus; read-out: RSV Plaque Reduction assay IC50 (Table 4)
Protocol: Plaque Reduction Assay: […] After an overnight incubation at 37° C. in a humidified 5% CO2 atmosphere, the monolayer of cells should be approximately 90% confluent. Antiviral compounds were titrated in pre-warmed Serum Free (SF) Optimem in a U-bottom 96 well plate. […] Media was then removed from cells and replaced with PBS (100 μl/well). RSV stock was thawed and diluted in SF Optimem media to 4000 PFU/mLl. An equal volume of virus was added to compounds on the titration plate. PBS was removed from cells which were then inoculated with the virus/compound solution (50 μL/well). Cells were incubated for 2 h in a 37° C.+5% CO2 humidified incubator to allow infection. […] Cells were subsequently incubated for 48 h at 37° C.+5% CO2 in a humidified incubator. Immunostaining Procedure: Media was removed from cells and the monolayer washed with PBS. Cells were fixed with ice cold 80% Acetone in PBS (100 μl/well) for 20 mins at −20° C. […] Blocking solution was removed and plates washed once with PBS-T. Primary antibody in blocking solution was added to plates (50 μl/well) and incubated for 1 h at 37° C. Plates were then washed 3 times with PBS-T. Secondary antibody in blocking solution was added to plates (50 μL/well) and incubated for 1 h at 37° C. in the dark. […] Data Analysis: Images obtained were saved and plaque numbers counted with the aid of computer imaging software. […]

SMILES	IC50 (RSV A2 (PRNT1)) [nM]	IC90 (RSV A2 (PRNT1)) [nM]	IC50 (RSV-BA (Brasil)) [nM]	IC90 (RSV-BA (Brasil)) [nM]	fraction unbound at 5 μM [1]	IC50 (RSV) [nM]
NCc1ccc2c(c1)nc(CN1C(=O)C3(CC3)c3ccc(F)cc31)n2CCCC(F)(F)F [Example 1, 1′-{[5-(Aminomethyl)-1-(4,4,4-trifluorobutyl)-1H-1,3-benzodiazol-2-yl]methyl}-6′-fluoro-1′,2′-dihydrospiro[cyclopropane-1,3′-indole]-2′-one]	2.1	13.5	2.1	34.5	0.67	–
CC(C)CCn1c(CN2C(=O)C3(CC3)c3ccccc32)nc2cc(CN)ccc21 [RV039, 1′-((5-(aminomethyl)-1-isopentyl-1H-benzo[d]imidazol-2-yl)methyl)spiro[cyclopropane-1,3′-indolin]-2′-one, reference compound]	–	–	–	–	–	31
